Source: patent US5428020A, “Cysteine (NPYS)-containing peptides and use thereof for inhibiting platelet aggregation” (Matsueda; Rei, priority 1994, dated 1995)
pIC50: −log10 of the molar value. * marks the point of attachment. Npys = O=[N+]([O-])c1cccnc1S*

How the values were obtained:
papain = biological target: T1, papain (Carica papaya, UniProt P00784); settings: Teno et al., Int. J. Peptide Protein Res. 30, 93-98 (1987); cited from earlier work
T1 sequence (P00784 134-345): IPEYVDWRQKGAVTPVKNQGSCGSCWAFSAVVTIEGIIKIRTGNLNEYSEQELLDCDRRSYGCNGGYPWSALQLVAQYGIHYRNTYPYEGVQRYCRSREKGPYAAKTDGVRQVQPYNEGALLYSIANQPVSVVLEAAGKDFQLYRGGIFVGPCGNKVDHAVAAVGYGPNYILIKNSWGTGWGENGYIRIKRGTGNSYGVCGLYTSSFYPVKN

human platelets = assay: Inhibition of agonist-induced aggregation of washed human platelets (aggregometer); format: cell-based; design: key to Inhibition of platelet aggregation, PMA / Inhibition of platelet aggregation, Thrombin / Inhibition of platelet aggregation, Plasmin / Inhibition of platelet aggregation, ADP / Inhibition of platelet aggregation, Collagen / Inhibition of platelet aggregation, U46619 / Inhibition of platelet aggregation, A23187: "+" indicates inhibition of platelet aggregation; "-" indicates the absence of inhibition of platelet aggregation; "partial" indicates a partial inhibition of platelet aggregation; settings: for Inhibition of platelet aggregation, A23187: agonist A23187 2.5 uM; for Inhibition of platelet aggregation, A23187 / Inhibition of platelet aggregation, ADP / Inhibition of platelet aggregation, PMA / Inhibition of platelet aggregation, U46619 / Inhibition of platelet aggregation, Collagen / Inhibition of platelet aggregation, Plasmin / Inhibition of platelet aggregation, Thrombin: inhibitor peptide 0.8 nm, 37° C.; for Inhibition of platelet aggregation, ADP: agonist ADP 20 uM; for Inhibition of platelet aggregation, PMA: agonist PMA 0.016 uM; for Inhibition of platelet aggregation, U46619: agonist U46619 1 uM; for Inhibition of platelet aggregation, Collagen: agonist collagen 4 ug/ml; for Inhibition of platelet aggregation, Plasmin: agonist plasmin 0.025 uM; for Inhibition of platelet aggregation, Thrombin: agonist thrombin 0.02 uM
Protocol: Platelet-rich plasma was prepared by differential centrifugation (120×g, 30 min, 23° C.) of fresh whole human blood drawn into acid/citrate/dextrose (citric acid 0.079 M, sodium citrate, 0.085 M and dextrose 0.180 M) in a ratio of 1 ml of anticoagulant solution per 9 ml of blood. The platelets were washed and their suspensions prepared by a modification of the method of Mustard, et al., Brit. J. Haemat. 22, 193-204 (1972). The modifications included incubation of platelet-rich plasma with prostaglandin E1, hirudin and apyrase and two successive washes of the platelets with Tyrode-albumin buffer (without Ca^++) containing hirudin and apyrase, and apyrase alone. Platelet aggregation in the presence of each agonist and inhibitor peptide (0.8 nm) was performed at 37° C. under constant stirring (1100 rpm) conditions in a chronolog (Lumi) aggregometer. The total volume of the incubation mixture in the sample cuvette was 500 μl and the platelet concentration was adjusted to 5×10^8 /ml. The reference cuvette contained the suspension buffer. Platelet aggregation was initiated by the addition of the agonist to the sample cuvette. The data is indicated in the following table wherein "+" indicates inhibition of platelet aggregation, "-" indicates the absence of inhibition of platelet aggregation, and "partial" indicates a partial inhibition of platelet aggregation.

calpain = assay: Calpain inhibition, fluorogenic substrate succinyl-Leu-Tyr-amino-4-methylcumarin; format: biochemical; settings: 90 mM calpain; 1 mM substrate; 25° C.; pH 7.5; 5 mM CaCl2; read-out: Calpain Inhibitory Potency IC50
Protocol: 77, 1565 (1986). A calpain preparation (5~10 μl) was placed on a floating filter membrane (Marusyk et al., Anal. Biochem. 105, 403 (1980)) (Millipore type VMWP) over a buffer containing 50 mM Tris/HCl, pH 7.5 and 2.5 mM EDTA for 45-60 minutes, carefully removed and used for the following inhibition study. Aliquots (25 μl) of the enzyme (calpain) and buffer or synthetic peptide were added to a cuvette at 25° C. containing 1 mM succinyl-Leu-Tyr-amino-4-methylcumarin as the substrate in a buffer consisting of 60 mM Tris/HCl, pH 7.5, 2.5% DMSO and 5 mM CaCl2. The rate of substrate hydrolysis was continuously recorded on a Perkin-Elmer LS-5 fluorescence spectrophotometer connected to a R100 chart recorder. […] The IC50 was calculated from the dose-dependent curve for each inhibitor. The IC50 corresponds to that concentration of inhibitory peptide that produced 50% inhibition of calpain activity. In all cases, […] was utilized.

platelets [1] = assay: Platelet shape change induced by thrombin and plasmin; format: cell-based, human
platelets [2] = assay: Platelet cAMP levels; format: cell-based, human
aggregen = assay: Thrombin- and plasmin-induced cleavage of labeled aggregen in intact radiolabeled platelets; format: cell-based, human
thrombin [3] = biological target: T2, thrombin (Homo sapiens, UniProt P00734); assay: Fibrinogenolytic activity of thrombin; format: biochemical
plasmin = plasmin (Homo sapiens, UniProt P00747); assay: Amidolytic activity of plasmin; format: biochemical
thrombin [4] = biological target: T2, thrombin; assay: Amidolytic activity of thrombin; format: biochemical

Chain of plasmin (P00747 581-810 limits assumed, species assumed): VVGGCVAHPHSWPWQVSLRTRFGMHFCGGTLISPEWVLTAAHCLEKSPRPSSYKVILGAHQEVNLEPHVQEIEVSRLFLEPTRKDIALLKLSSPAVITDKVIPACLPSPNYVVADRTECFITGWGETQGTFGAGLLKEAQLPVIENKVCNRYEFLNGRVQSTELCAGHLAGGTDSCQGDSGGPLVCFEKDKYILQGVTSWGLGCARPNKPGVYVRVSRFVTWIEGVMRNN
Chain of plasmin (P00747 97-580 partner limits assumed, species assumed): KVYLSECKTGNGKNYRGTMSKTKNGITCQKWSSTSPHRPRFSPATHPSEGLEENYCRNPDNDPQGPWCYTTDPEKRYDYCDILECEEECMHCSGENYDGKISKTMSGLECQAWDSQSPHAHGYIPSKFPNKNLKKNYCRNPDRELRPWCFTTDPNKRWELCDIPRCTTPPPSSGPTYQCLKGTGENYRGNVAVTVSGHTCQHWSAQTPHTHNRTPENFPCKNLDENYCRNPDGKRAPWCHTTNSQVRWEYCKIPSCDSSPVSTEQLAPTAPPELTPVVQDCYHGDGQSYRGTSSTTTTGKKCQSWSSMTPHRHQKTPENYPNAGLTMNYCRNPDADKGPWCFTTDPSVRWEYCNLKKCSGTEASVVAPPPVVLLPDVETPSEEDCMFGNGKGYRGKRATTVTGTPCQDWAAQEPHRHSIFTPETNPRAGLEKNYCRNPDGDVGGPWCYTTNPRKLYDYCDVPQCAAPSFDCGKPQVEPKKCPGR

| Substance | activity in inhibiting the thiol protease papain (papain) | Inhibition of platelet aggregation, A23187 (human platelets) | Inhibition of platelet aggregation, ADP (human platelets) | Inhibition of platelet aggregation, PMA (human platelets) | Inhibition of platelet aggregation, U46619 (human platelets) | Inhibition of platelet aggregation, Collagen (human platelets) | Inhibition of platelet aggregation, Plasmin (human platelets) | Inhibition of platelet aggregation, Thrombin (human platelets) | pIC50 (calpain) | effect on platelet shape change introduced by thrombin and plasmin (platelets [1]) | aggregation induced by any of the other agonists tested (human platelets; agonists other than thrombin and plasmin) | platelet-cAMP levels (platelets [2]) | thrombin- and plasmin induced cleavage of [^3 H]-5'-p-fluorosulfonylbenzoyl adenosine-labeled aggregen (aggregen) | inhibition of fibrinogenolytic activity of thrombin (thrombin [3]) | inhibition of amidolytic activity of plasmin (plasmin) | inhibition of amidolytic activity of thrombin (thrombin [4]) |
| --- | --- | --- | --- | --- | --- | --- | --- | --- | --- | --- | --- | --- | --- | --- | --- | --- |
| Gln-Val-Val-Ala-Gly (QVVAG; printed: Gln-Val-Val-Ala-Gly) [QVAAG, pentapeptide of kininogen D2 and D3 repeats] | weak activity |  |  |  |  |  |  |  |  |  |  |  |  |  |  |  |
| TFA.H-Ala-Gln-Val-Val-CYs (NpyS)-GlY-NH2 (H-AQVV-{Cys(NpyS)-Gly-NH2}; also: TFA salt) [Example 4] |  | partial | + | + | + | + | + | + | 4.80 |  |  |  |  |  |  |  |
| TFA.H-Arg-Gln-Val-Val-Cys(NPYS)-GlY-NH2 (H-RQVVC(Npys)G-NH2; also: TFA salt) [Example 3] |  | partial | + | + | + | + | + | + | 4.26 |  |  |  |  |  |  |  |
| TFA.H-Gln-Val-Val-Cys(NpyS)-Gly-NH2 (H-QVVC(Npys)G-NH2; also: TFA salt) [Example 5] |  | partial | + | + | + | + | + | + | 4.44 |  |  |  |  |  |  |  |
| TFA.H-Phe-Gln-Leu-Val-Cys(NpyS)-Gly-NH2 (H-FQLVC(Npys)G-NH2; also: TFA salt) [Example 2] |  | partial | partial | partial | partial | partial | + | + | 5.25 |  |  |  |  |  |  |  |
| TFA.H-Phe-Gln-Val-Val-Cys(NpyS)-Gly-NH2 (H-FQVVC(Npys)G-NH2; also: TFA salt) [Example 1] |  | - | - | - | - | - | + | + | 5.39 | no effect | did not inhibit | did not raise | completely inhibited | did not inhibit | did not inhibit | did not inhibit |
